Assay results: US11098072B2, “Alkenyl and beta-substituted phosphonates as antimicrobial agents” (The George Washington University, priority 2017, dated 2021)
Read-outs that look alike come from different tables or passages of the source.

Assays:
Mtb = conditions: footnote a: Jackson et al. 2014, cited from earlier work
P. falciparum [1] = conditions: Table 6, footnote b: Edwards et al. 2017; read-out: P.f. IC50; cited from earlier work
P. falciparum DXR = target: T1, P. falciparum DXR (Plasmodium falciparum, UniProt Q8IKG4); conditions: read-out: Pf DXR IC50; Table 2, footnote a: Gießmann et al. 2008; cited from earlier work
T1 sequence (Q8IKG4 73-488): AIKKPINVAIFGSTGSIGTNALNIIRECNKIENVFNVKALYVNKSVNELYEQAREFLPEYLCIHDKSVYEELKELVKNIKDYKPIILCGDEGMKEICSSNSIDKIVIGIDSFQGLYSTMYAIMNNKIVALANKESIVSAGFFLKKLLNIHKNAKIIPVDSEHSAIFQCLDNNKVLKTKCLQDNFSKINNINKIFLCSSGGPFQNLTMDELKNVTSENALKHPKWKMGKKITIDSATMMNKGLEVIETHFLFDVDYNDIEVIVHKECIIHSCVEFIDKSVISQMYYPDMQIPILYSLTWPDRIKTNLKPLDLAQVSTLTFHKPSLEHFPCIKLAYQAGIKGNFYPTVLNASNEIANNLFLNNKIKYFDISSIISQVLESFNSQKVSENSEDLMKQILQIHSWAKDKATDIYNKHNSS

P. berghei ANKA = experiment: P. berghei-infected mouse model of malaria; type: in vivo; conditions: for luciferin signal intensity (parasitemia): read seven days after infection
Description: Groups of mice were infected with luciferase-based blood-stage P. berghei ANKA by intraperitoneal (ip) injection. […] Seven days after infection, intensity of the luciferin signal was measured, correlating to the parasitemia burden.

P. falciparum [2] = experiment: Growth inhibition against P. falciparum; type: cell-based; conditions: Plasmodium falciparum
HepG2 cells = experiment: HepG2 cell inhibition (cytotoxicity) assay; type: cell-based; conditions: Homo sapiens, HepG2; Table 5, cytotoxicity; read-out: HepG2 IC50
Description: For cytotoxicity assays, HepG2 cells (ATCC HB-8065) were grown in DMEM supplemented with 4 mM L-glutamine (Gibco #11966-025) with either 4.5 g/L D-glucose or 1.8 g/L galactose as carbon source. Cells were trypsinized, resuspended in the respective medium (DMEM/glutamine/glucose or DMEM/glutamine/galactose) to 4×10^5 cells/mL and 50 μL/well transferred to flat-bottom white opaque tissue culture plates (Falcon #353296) containing 50 μL/well of the respective medium with test compound. Compound concentrations were two-fold dilutions ranging from 50 μM to 0.049 μM as well as the drug-free DMSO-only control. All concentrations were tested in duplicate for each carbon source. After 24 h incubation at 5% CO2, 37° C., 10 μL/well of Celltiter-Glo reagent (Promega #G9241) was added and luminescence recorded after 20 min incubation in the dark.

[3] = In vivo exposure study in mice; set-up: species or system Swiss Webster mice; conditions: 20 mg/kg i.p., Swiss Webster mice
Description: We designed a compound exposure study to determine plasma concentration of 12a under similar conditions to the efficacy study.
Animal care and all procedures were conducted at Charles River Laboratories (Wilmington, Mass.) and performed in accordance with the National Institutes of Health Guide for the Care and Use of Laboratory Animals and approved by the institutional animal care and use committee. […] The suspension was administered to unfasted female Swiss Weber mice (n=3) at 20 mg/kg i.p. Plasma samples (10 μL) were removed at 0.25, 0.5, 1, 2, 4, 6 and 8 h and stored at −80° C. Plasma samples were added to ice cold acetonitrile containing the internal standard, glafenine, as appropriate to bring samples into the standard curve range (50-10,000 ng/ml), then centrifuged for 5 minutes at 3200 rpm and the supernatant transferred to a 96-well sample plate for analysis by liquid chromatography-tandem mass spectrometry. The MRM transitions for glafenine and 12a were m/z: 370.9>296.9 and 180.075>119.9, respectively. A Synergi 4 μm Hydro-RP column (250×4.6 mm, 80 Å) was used for chromatographic separation. Mobile phases were 0.1% formic acid in water and acetonitrile with a flow rate of 1.2 mL/min. The starting phase was 0% acetonitrile for 3 minutes, increased to 60% acetonitrile over 6 minutes. Peak areas were integrated using Analyst Software (AB Sciex, Foster City, Calif.).

[4] = tested on: P. falciparum had1 mutant strain; type: cell-based
MEP pathway metabolites = experiment: MEP pathway metabolite assay (LC-MS/MS); type: cell-based, P. falciparum; conditions: 3D7, 65 nM (5× IC50), 10 h
Excerpt: Thus, a mass spectrometry-based method was used to quantify the MEP metabolites from untreated P. falciparum versus parasites treated with this compound (FIG. 4). These metabolites include the DXR substrate (1-deoxy-D-xylulose 5-phosphate, DOXP), the DXR product (2-C-methylerythritol 4-phosphate, MEP), and the downstream metabolites (4-diphosphocytidyl-2-C-methylerythritol (CDP-ME) and 2-C-methyl-D-erythritol 2,4-cyclopyrophosphate (MEcPP)).
Cultures were lysed with 5% saponin, the parasite pellets washed with 1× phosphate-buffered saline (PBS), and the pellets stored at −80° C. […]
For LC separation, a Luna-NH2 column (3 um, 150×2 mm, Phenomenex) was used flowing at 0.4 mL/min. […] Metabolites were detected using MRM transitions that were previously optimized using standards. […] For quantification, an external standard curve was prepared using a series of standard samples containing different concentrations of metabolites and fixed concentration of the internal standard. […]

in vitro = in vitro ADME; conditions: mouse plasma, compound 1 μM, 37° C.; read-out: Plasma stability (t1/2)
Description: (§1) In this protocol, the metabolic stability of compounds at 1 μM was determined in mouse liver microsomes (MLM) and mouse plasma. For microsomal stability each test compound was incubated in an aqueous reaction mixture consisting of 0.25 […], 1.2 mM NADPH, 3.3 mM MgCl2, and 100 mM potassium phosphate buffer (pH 7.4). For plasma stability each test compound was incubated in mouse plasma (VWR). After incubation at 37° C. a 50 μL aliquot of the reaction was transferred to 200 μL ice cold acetonitrile containing internal standard (Enalapril, 100 ng/mL). The quenched reaction mixtures were centrifuged at 3200 rpm for 5 min, and 100 μL of the supernatant were transferred to 96-well plate and analyzed by LC-MS/MS using an Applied Biosystems-Sciex API 4000. Analyte/internal standard peak area ratios were used to evaluate stability. […] An Amour C18 column (2.1×30 mm, 5 μm; Analytical Sales and Services, Pompton Plains, N.J.) was used for chromatographic separation. Mobile phases were 0.1% formic acid, 1 mM triethylamine in water and acetonitrile with a flow rate of 0.35 mL/min. The starting phase was 0% acetonitrile increased to 100% acetonitrile over 3 minutes. Peak areas were integrated using Analyst Software (AB Sciex, Foster City, Calif.).

[5] = Metabolic stability in mouse liver microsomes; type: in vitro ADME; conditions: pH 7.4
Description: as §1

DXR = conditions: versus substrate DOXP and cofactor NADPH; cited from earlier work
[6] = Table 4, growth inhibition, read-out: Pf IC50
[7] = read-out: P. falciparum growth IC50

SMILES: CC(=O)N(O)C/C=C/P(=O)(O)O [Compound 2]
- Mtb MIC99 Gast/Fe (Mtb; minimal media (GAST-Fe)): 150^a μg/mL
- Mtb MIC99 7H9 (Mtb; rich media (7H9)): >200^a μg/mL
- IC50 (P. falciparum [1]): 203 nM
- IC50 (P. falciparum DXR): 18 nM

SMILES: CC(C)(C)C(=O)OCOP(=O)(/C=C/CN(O)C=O)OCOC(=O)C(C)(C)C [Compound 18a, [({[(2,2-dimethylpropanoyl)oxy]methoxy}[(1E)-3-(N-hydroxyformamido)prop-1-en-1-yl]phosphoryl)oxy]methyl 2,2-dimethylpropanoate]
- drop in luciferin signal intensity compared to vehicle (P. berghei ANKA; 20 mg/kg i.p.): 3 log
- luciferin signal intensity (parasitemia) (P. berghei ANKA; 20 mg/kg i.p. daily for five days): 2.87×10^3
- luciferin signal intensity (parasitemia) (P. berghei ANKA; 50 mg/kg i.p. daily for five days): 2.34×10^3
- IC50 (P. falciparum [2]; [6]): 13 nM
- IC50 (P. falciparum [2]; [7]): 13 nM
- IC50 (HepG2 cells): > 50000 nM
- conversion of prodrug to 12a in vivo [3]: rapidly converted to 12a
- sensitivity in had1+HAD1-GFP strain ([4]; mutant supplied with wild-type copy of HAD1): restored
- resistance of had1 parasites compared with wild-type 3D7 ([4]; shift of IC50 curve): 2.5 fold
- DOXP levels, treated vs untreated parasites (MEP pathway metabolites): did not show significant difference
- levels of metabolites downstream of DXR, treated vs untreated parasites (MEP pathway metabolites; MEP, CDP-ME, MEcPP): reduced levels
- half-life at 1 μM (in vitro): < 5 min
- half-life at 1 μM ([5]; mouse, microsomes): < 5 min
- half-life ([5]; mouse liver microsomes, compound 1 μM, 37° C., read-out: Metabolic stability MLM (t1/2)): < 5 min

SMILES: O=CN(O)CCCP(=O)(O)O [Fosmidomycin, reference compound]
- binding mode to DXR (DXR): competitively with substrate DOXP and noncompetitively with cofactor NADPH
- IC50 (P. falciparum [2]; Table 3, diethyl phosphonate analogs, read-out: P.f. IC50): 0.175 µg/mL
- IC50 (P. falciparum [2]; [6]): 854 nM
- IC50 (P. falciparum [2]; [7]): 854 nM
- resistance of had1 parasites compared with wild-type ([4]; in words): resistant
